Tests used:
[1] = Specific activity of compound was determined; type: ADME
[2] = Second order rate constant was determined; type: ADME

Specific activity [1]: 0.23 µM/min/mg
Km [2]: 69 µM
Compound: NC(CCS)C(=O)O (configuration not stated) [HOMOCYSTEINE]

Source: ChEMBL document CHEMBL1132803, “L-Selenohomocysteine: one-step synthesis from L-selenomethionine and kinetic analysis as substrate for methionine synthases” (Bioorg Med Chem Lett, 2000)
